# Measurements published in EPA's ToxValDB 9.5 (doi:10.2903/j.efsa.2018.5130).
# Tests used:
# Aphidius rhopalosiphi = assay: LR50; higher = less toxic; conditions: acute; mortality
# Mus musculus = conditions: acute, oral, mortality
# Rattus norvegicus = conditions: developmental; development
# Pleurozium sp. = conditions: acute; duration: 72 hours; growth
# Phasianus sp. = conditions: acute; duration: 14 days; oral; unspecified; mortality
# Bibionidae = conditions: chronic/long-term; duration: 28 days; development
# Folsomia candida = conditions: chronic/long-term; duration: 28 days; reproduction
# Neomysis kadiakensis = conditions: acute; duration: 96 hours; mortality
# Apis mellifera = conditions: acute, mortality
# Tagia sp. = conditions: chronic/long-term; growth
# Daphnia magna = conditions: chronic/long-term; duration: 21 days; reproduction
smiles,measurement,setting,value
COP(=S)(OC)Oc1c(Cl)cc(C)cc1Cl [Tolclofos-methyl],LR50,Aphidius rhopalosiphi,43.7 g/ha
same,LD50,Mus musculus; F,3600 mg/kg-day
same,LD50,Mus musculus; M,3500 mg/kg-day
same,NOAEL,"Anas platyrhynchos; reproductive, duration: 19 weeks",77 mg/kg-day
same,LD50,"Anas platyrhynchos; short-term, duration: 8 days, oral, feed, mortality",> 1620 mg/kg-day
same,NOAEL,Rattus norvegicus,70.6 mg/kg-day
same,NOEC,Pleurozium sp.,0.14 mg/L
same,LD50,Phasianus sp.,> 5000 mg/kg-day
same,LC50,"Oncorhynchus mykiss; acute, duration: 96 hours, mortality",0.69 µg/mL
same,NOEC,"Oncorhynchus mykiss; chronic/long-term, growth",0.012 mg/L
same,NOEC,Bibionidae,0.25 mg/L
same,NOEC,Folsomia candida,11 mg/kg
same,LC50,Neomysis kadiakensis,0.089 µg/mL
same,LD50,"Apis mellifera; duration: 48 hours, oral, unspecified",> 264 µg/piece
same,LD50,"Apis mellifera; duration: 72 hours, dermal",456 µg/piece
same,NOEC,Tagia sp.,60 mg/kg
same,NOEC,Daphnia magna,0.026 mg/L
